Where two headings read alike, the source gives them in different places.
Assays:
Eμ-Myc cells [1] = assay: Seahorse XF96 respirometry (OCR and ECAR); format: cell-based, mouse; conditions: for Oxygen consumption of +17˜92 cells / Oxygen consumption of control cells: 100 μM phenformin or 10 μM Compound 1, after roughly four hours; for Oxygen consumption rate (OCR) / Extracellular acidification rate (ECAR): acute treatment, across a range of doses; for Oxygen consumption rate (OCR): FIG. 2A, 8A; for Extracellular acidification rate (ECAR): FIG. 2B, 8B; for IC50: after two hours treatment, read-out: Dose that produced a roughly 50% decrease in OCR from baseline
Description: 7.5×10^4 lymphoma cells were plated per well of an XF96 Seahorse plate in 140 μL of unbuffered DMEM containing 25 mM glucose and 2 mM glutamine, followed by centrifugation at 500×g for five minutes. Seahorse plates were pre-coated with poly-D-lysine (Sigma-Aldrich) to enhance cell adherence. XF assays consisted of sequential mix (3 min), pause (3 min), and measurement (5 min) cycles, allowing for determination of OCR and ECAR every […]. […] For media metabolite determination, cells were seeded at 1×10^5 cells/mL in 3.5 cm plates, and cultured for two days prior to harvesting medium. Culture medium was analyzed for extracellular metabolites (glucose and lactate) using a BioProfile Analyzer (NOVA Biomedical) and normalized to cell number.

Raji cells = assay: Cell viability assay in Raji lymphoma cells; format: cell-based, human; conditions: 48 hours, FIG. 3B
Description: (§1) Eμ-Myc cells were cultured on a layer of irradiated Ink4a-null MEF feeder cells in DMEM and IMDM medium (50:50 mix) supplemented with 10% fetal bovine serum (FBS), 20000 U/mL penicillin, 7 mM streptomycin, 2 mM glutamine, and β-mercaptoethanol. Raji cells were cultured in RPMI medium supplemented with 10% FBS, 20000 U/mL penicillin, 7 mM streptomycin, and 2 mM glutamine. Cells were grown at 37° C. in a humidified atmosphere supplemented with 5% (v/v) CO2.
(§2) Cells were seeded at a density of 1×10^5 cells/mL in 3.5 cm dishes, and cell counts determined via trypan blue exclusion using a TC20 Automated Cell Counter (Biorad). For viability measurements, cells were stained with Fixable Viability Dye eFluor 780 (eBioscience), and analyzed using a Gallios flow cytometer (Beckman Coulter, Fullerton, Calif.) and FlowJo software (Tree Star, Ashland, Oreg.).

Eμ-Myc cells [2] = assay: GC-MS analysis of metabolite abundance and 13C-glutamine labelling; format: cell-based, mouse; conditions: for 13C-glutamine incorporation into glutamate and α-ketoglutarate, +17˜92 versus treated control cells: 100 μM phenformin or 10 μM Compound 1, FIG. 4B; for Aspartate abundance: +17˜92 and control cells, 2 hours, 100 μM phenformin or 10 μM Compound 1, FIG. 4A
Description: Cellular metabolites were extracted and analyzed by GC-MS. […] Cells were washed twice with saline, then lysed in ice-cold 80% methanol and sonicated. For GC-MS analysis, D-myristic acid (750 ng/sample) was added to metabolite extracts as an internal standard prior to drying samples under a N2 stream. […] The oven program for all metabolite analyses started at 60° C. held for 1 min, then increasing at a rate of 10° C./min until 320° C. Bake-out was at 320° C. for 10 min. […] Mass isotopomer distribution for TCA cycle intermediates was determined using a custom algorithm developed at McGill University. After correction for natural ^13C abundances, a comparison was made between non-labeled (^12C) and ^13C-labeled abundances for each metabolite. Metabolite abundance was expressed relative to the internal standard (D-myristic acid) and normalized to cell number.

AMPK = assay: Immunoblot for pAMPK (T172) and total AMPK; format: cell-based, mouse; conditions: two hours, 100 μM phenformin or 10 μM Compound 1, FIG. 3C
Excerpt: Lymphoma cell lines were subjected to SDS-PAGE and immunoblotting using CHAPS and AMPK lysis buffers. Primary antibodies against β-actin, 4EBP (total, phospho-T36/47, and phospho-S65), rS6 (total and p S235/236), Raptor (total and pS792), and AMPKα (total and phospho-T172) were obtained from Cell Signaling Technology (Danvers, Mass.). Primary antibody against LKB1 (Ley 37D/G6) was obtained from Santa Cruz Biotechnology (Dallas, Tex., USA). For qPCR quantification of mature miRNAs, Qiazol was used isolate RNA, miRNEasy Mini kit was used to purify miRNAs and total mRNA, and cDNA synthesized using the miScript II RT kit (Qiagen). Quantitative PCR was performed using the SensiFAST SYBR Hi-ROX kit (Bioline) and an AriaMX Real-Time PCR system (Agilent Technologies). miScript primer assays (Qiagen) were used to detect mature miRNAs of the miR-17˜92 cluster, with miRNA expression normalized relative to U6 RNA levels.

Eμ-Myc cells [3] = assay: Mitochondrial ROS by MitoSox staining and flow cytometry; format: cell-based, mouse; conditions: 2 hours, 100 μM phenformin or 10 μM Compound 1, FIG. 5A
Excerpt: Statistics for all figures are as follows: *, p<0.05; **, p<0.01; ***, p<0.001.

[4] = system: Eμ-Myc lymphoma cells (control or +17˜92); assay: Tumor xenograft assay, survival of nude mice injected with lymphoma cells; format: in vivo, CD-1 nude mice; conditions: drinking water ad lib, 0.9 mg/mL phenformin or 0.8 mg/mL Compound 1, FIG. 6B
Description: Lymphoma cells were resuspended in HBSS at a concentration of 5×10^6 cells/mL, and 10^6 cells/200 μL were injected intravenously into CD-1 nude mice (Charles River).

Eμ-Myc cells [5] = assay: LC-MS analysis of GSH/GSSG, NADP+/NADPH and NAD+/NADH ratios; format: cell-based, mouse; conditions: 2 hours
Description: Aqueous supernatants were dried by vacuum centrifugation with sample temperature maintained at −4° C. (Labconco, Kansas City Mo., USA). Pellets were subsequently resuspended in 25 μL of H2O as the injection buffer. Chromatographic separation was performed on a Scherzo SM-C18 column 3 μm, 3.0×150 mm (Imtakt Corp, JAPAN). The chromatographic gradient started at 100% mobile phase A (0.2% formic acid in water) with a 2 min hold followed with a 6 min gradient to 80% B (0.2% formic acid in MeOH) at a flow rate of 0.4 mL/min. This was followed by a 5 min hold time at 100% mobile phase B and a subsequent re-equilibration time (6 min) before next injection. […] Analyte ionization was accomplished using ESI in positive ionization mode. […] MS data were acquired in full scan mode mass range: m/z 100-1000; scan time: 1.4 s; data collection: centroid and profile modes. […] For all LC/MS analyses, 1 μL of sample was injected. The column temperature was maintained at 10° C. Data were quantified by integrating the area under the curve of each compound using MassHunter Quant (Agilent Technologies, Santa Clara, Calif., USA). Each metabolite's accurate mass ion was extracted (EIC) using a 10 ppm window. Relative concentrations were determined from external calibration curves.

Eμ-Myc lymphoma cells = conditions: for Protection of viability of +17˜92 cells by pyruvate supplementation, lower doses / Protection of viability of +17˜92 cells by pyruvate supplementation, higher concentrations: 1 mM pyruvate, FIG. 5D, 10C; for Protection of viability of +17˜92 cells by pyruvate supplementation, lower doses: 10 μM Compound 1 or 30 μM phenformin; for Protection of viability of +17˜92 cells by pyruvate supplementation, higher concentrations: 100 μM Compound 1 or 300 μM phenformin
Description: as §1, §2

[6] = 100 μM phenformin or 10 μM Compound 1, FIG. 5C

N=C(NC(=N)N1CCCC1)Nc1cccc(OC(F)(F)F)c1 [Compound 1, N1-pyrrolidine-N5-(3-trifluoromethoxy)phenyl biguanide]
Oxygen consumption of +17˜92 cells (Eμ-Myc cells [1]): never eliminated | Oxygen consumption of control cells (Eμ-Myc cells [1]): effectively non-respiring | Oxygen consumption rate (OCR) (Eμ-Myc cells [1]): decreased | Extracellular acidification rate (ECAR) (Eμ-Myc cells [1]): commensurate increases | IC50 (Eμ-Myc cells [1]): 10 µM | Speed of OCR reduction versus equivalent doses of phenformin (Eμ-Myc cells [1]; higher doses, 5 min post-injection, FIG. 2C): more rapid reductions in OCR | Extent of OCR reduction versus equivalent doses of phenformin (Eμ-Myc cells [1]; lower doses, longer time periods (260 min), FIG. 2D): more profound reductions in OCR | Viability of Raji cells with or without miR-17˜92 overexpression over a range of doses (Raji cells): followed a similar trend, albeit at higher doses | 13C-glutamine incorporation into glutamate and α-ketoglutarate, +17˜92 versus treated control cells (Eμ-Myc cells [2]): more significant reduction | Aspartate abundance (Eμ-Myc cells [2]): reduced aspartate abundance | AMPK phosphorylation in +17˜92 cells (AMPK): largely unaffected | Mitochondrial ROS in +17˜92 cells (Eμ-Myc cells [3]): significantly increased mitochondrial ROS | Mitochondrial ROS levels in control cells (Eμ-Myc cells [3]): neither phenformin nor Compound 1 treatment were sufficient to increase | Lifespan of mice bearing +17˜92 cells [4]: significantly prolonged the lifespan | GSH/GSSG ratio (Eμ-Myc cells [5]; 100 μM phenformin or 10 μM Compound 1, FIG. 5B): no significant changes | NADP+/NADPH ratio in +17˜92 cells (Eμ-Myc cells [5]; [6]): increase their NADP+/NADPH ratio | NADP+/NADPH ratio in control cells (Eμ-Myc cells [5]; [6]): not control cells | Protection of viability of +17˜92 cells by pyruvate supplementation, lower doses (Eμ-Myc lymphoma cells; 48 hours): some protective benefit | Protection of viability of +17˜92 cells by pyruvate supplementation, higher concentrations (Eμ-Myc lymphoma cells; 48 hours): not apparent | Viability of +17˜92 cells at doses not toxic in control cells (Eμ-Myc lymphoma cells; 48 hours, FIG. 3A): viability of +17˜92 cells was affected

[H]/N=C(/N)N/C(=N/[H])NCCc1ccccc1 [phenformin, reference compound]
Oxygen consumption of +17˜92 cells (Eμ-Myc cells [1]): never eliminated | Oxygen consumption of control cells (Eμ-Myc cells [1]): effectively non-respiring | IC50 (Eμ-Myc cells [1]; Mus musculus, 2 h): 100 µM | Oxygen consumption rate (OCR) (Eμ-Myc cells [1]): decreased | Extracellular acidification rate (ECAR) (Eμ-Myc cells [1]): commensurate increases | Viability of Raji cells with or without miR-17˜92 overexpression over a range of doses (Raji cells): followed a similar trend, albeit at higher doses | 13C-glutamine incorporation into glutamate and α-ketoglutarate, +17˜92 versus treated control cells (Eμ-Myc cells [2]): not | Aspartate abundance (Eμ-Myc cells [2]): reduced aspartate abundance | AMPK phosphorylation in +17˜92 cells (AMPK): reduced AMPK phosphorylation than control cells | Mitochondrial ROS in +17˜92 cells (Eμ-Myc cells [3]): approached significance | Mitochondrial ROS levels in control cells (Eμ-Myc cells [3]): neither phenformin nor Compound 1 treatment were sufficient to increase | Lifespan of mice bearing +17˜92 cells [4]: significantly prolonged the lifespan | Viability of Δ/Δ (miR-17˜92 deleted) versus fl/fl cells (Eμ-Myc lymphoma cells; 48 hour treatment, FIG. 1A): more resistant | Protection of viability of +17˜92 cells by pyruvate supplementation, lower doses (Eμ-Myc lymphoma cells; 48 hours): some protective benefit | Protection of viability of +17˜92 cells by pyruvate supplementation, higher concentrations (Eμ-Myc lymphoma cells; 48 hours): not apparent | Sensitivity (viability) of +17˜92 versus control Eμ-Myc lymphoma cells (Eμ-Myc lymphoma cells; 48 hours, FIG. 1C): significantly more sensitive than controls
